Tests used:
AR+LNCaP cells [1] = experiment: Cell apoptosis assay (Annexin V-FITC, flow cytometry); assay type: cell-based, human; details: IC50 concentration, 1 nM DHT, 24 h
Method: Cell apoptosis assay was performed to ensure the efficacy of compounds 3i and 3k against the progression of AR^+LNCaP tumor cell growth in the presence of 1 nM DHT. Untreated AR^+LNCaP and Enzalutamide-treated AR^+LNCaP were used in this assay as negative and positive controls, respectively. AR^+LNCaP cells were precultured in 25 cm^2 flasks. Briefly, 1 nM DHT was then added to the growing cells. […] AR^+LNCaP cells were harvested and fixed with 70% (v/v) ethanol in FBS (Sigma-Aldrich, Germany), then maintained at 4 °C overnight. The cells were resuspended in FBS containing 0.1% (v/v) Triton X-100, 40 µg/mL […], and 0.1 mg/mL RNase then incubated in a dark chamber at 37 °C for 30 min. A flow-cytometer (Becton Dickinson, San Jose, CA, USA) supplemented with an argon ion laser at a wavelength of 488 nm was used to analyze the AR^+LNCaP cell apoptotic stages. Based on the protocol described by Ozgur et al. (2003), analysis of the data was implemented using Multicycle Software (Phoenix Flow Systems, San Diego, CA, USA; http://www.phoenixflow.com/index.html).
The active compounds 3i and 3k were further analyzed to evaluate their antitumor properties against the growth of the AR^+LNCaP prostate cancer cell line. […] Untreated AR^+LNCaP cells and Enzalutamide reference drug were also used as negative and positive controls in this assay, respectively.

[2] = tested on: AR+LNCaP androgen-sensitive human prostate cancer cell line; experiment: MTT cytotoxicity assay in presence of 1 nM DHT, 48 h incubation; assay type: cell-based; details: for IC50: Homo sapiens; for Selectivity AR-/AR+: IC50 PC-3 / IC50 LNCaP
Method: (§1) The antitumor properties of pyrazolylmethylene-2-thioxoimidazolidin-4-one derivatives (3a–p) against androgen-sensitive (AR^+LNCaP; ATCC CRL-1740, Accession: CVCL_0395) and androgen-insensitive (AR^-PC-3; ATCC CRL-1435, Accession: CVCL_D5ZS) human prostate cancer cell lines in addition to normal human lung fibroblast cell line (Wi38, Accession: CVCL_2759) were evaluated by MTT assay. AR^+LNCaP, AR^-PC-3, and Wi38 cell lines were purchased frozen in liquid nitrogen from Egyptian Company for Production of Vaccines, Sera and Drugs, Cairo, Egypt (VACSERA). Tumor cell lines were stored as monolayer cultures in DMEM supplemented with 10% FBS and 1% penicillin–streptomycin. MTT assay was carried out as described previously in the literature. In brief, AR^+LNCaP, AR^-PC-3, and Wi38 cells were cultured into 96-well plates containing 100 µL of culture medium per each well. […] A control containing only culture medium was also applied. The assay was performed in triplicate. The cells were incubated overnight to grow at 37 °C in 5% CO2. After removing the growth medium, 100 µL of MTT (0.4 mg/mL of PBS) were added. After 24 h of incubation, the supernatant was removed and 100 µL of DMSO (Sigma Aldrich, Germany) were then added to each sample. Absorbance at 550 nm was measured. The formula (Reading of extract/Reading of negative control) × 100 was applied to calculate the viability percentage. The IC50 value of test compounds (3a–p) was also determined using CPE measurements of normal Wi38 cells (normal human lung fibroblast cells). The MTT assay was repeated with the test compounds (3i, 3k, 3o, 3j, 3p, and 3m) using the three cell types which were stimulated by 1 nM DHT after 48 h of incubation. IC50 values were estimated using Graph Pad Prism computer software (International Scientific Community, San Diego, CA, USA) from linear regression analysis of the concentration–response curves plotted for each tested compound [36].
(§2) The assay was performed in the presence of dihydrotestosterone (1 nM DHT) for 48 h of incubation as previously described. DHT is a potent inducer of androgens that enhances prostate cancer disease progression.

[3] = tested on: Wi38 normal human lung fibroblast cell line; experiment: as above; assay type: cell-based; details: WI-38, read-out: IC50 Wi38
Method: as §1, §2

[4] = tested on: AR-PC-3 androgen-insensitive human prostate cancer cell line; experiment: as above; assay type: cell-based
Method: as §1, §2

[5] = tested on: active human caspase-3 in AR+LNCaP cells; experiment: Detection of active Caspase 3 in AR+LNCaP cell lysates (Invitrogen Elisa kit); assay type: cell-based; parameters: Caspase 3 Conc. (Average): unit not given here; details: for active Caspase 3 fold change compared to untreated cells / induction of active caspase 3 as a percentage of the reference drug Enzalutamide: IC50 concentration; for active Caspase 3 fold change compared to untreated cells: 1 nM DHT, AR+LNCaP lysate; for induction of active caspase 3 as a percentage of the reference drug Enzalutamide: AR+LNCaP; for Caspase 3 fld / Caspase 3: LNCaP, supplement lab report; for Caspase 3 fld: fold of control; for Caspase 3 Conc. (Average): supplement ELISA read-out, average of two wells
Method: Untreated AR^+LNCaP and Enzalutamide-treated AR^+LNCaP were used as negative and positive controls, respectively. AR^+LNCaP cells were cultured in 96-well plates at a cell density of 1 × 10^4 cells/well. Cells were then lysed with 50 µL lysis buffer/well supplemented with the Invitrogen Elisa kit for detection of active human caspase-3 (Invitrogen, Camarillo, CA, USA). Plates were frozen at −80 °C for 30 min and then thawed. The lysate was mixed with 2 Z-DEVD-R110 substrate and incubated at room temperature for 30 min. A fluorescence microplate reader (Tecan, Mainz-Kastel, Germany), was used to measure fluorescence via excitation at 496 nm and emission detection at 520 nm. Values were normalized with total protein content. Active caspase 3 accumulation was determined based on standard dilution series of Human Caspase-3 samples provided with the kit. […]

[6] = tested on: AR+LNCaP androgen-sensitive human prostate cancer cell line; experiment: MTT in vitro cytotoxicity assay, 24 h incubation; assay type: cell-based; details: for IC50: Homo sapiens, MTT; for Selective Index Wi38/Lncap: ratio of IC50 values
Method: as §1
(§3) In vitro cytotoxicity assay was performed to elucidate the antitumor properties of the synthesized derivatives of pyrazolylmethylene-2-thioxoimidazolidin-4-one. […] The cytotoxicity assay was performed using MTT assay as described in the Materials and Methods Section 2.4.1. The test compounds were dissolved in DMSO as stock solutions (<0.5% (v/v)) and stored in the dark at −20 °C. The human prostate cancer cells and normal human lung fibroblast cells were subjected to variable doses of the compounds for 24 h.

[7] = tested on: Wi38 normal human lung fibroblast cell line; experiment: MTT in vitro cytotoxicity assay, 24 h incubation; assay type: cell-based; details: WI-38
Method: as §1, §3

[8] = tested on: AR-PC-3 androgen-insensitive human prostate cancer cell line; experiment: MTT in vitro cytotoxicity assay, 24 h incubation; assay type: cell-based; details: for IC50: Homo sapiens, MTT; for Selective Index Wi38/PC-3: ratio of IC50 values
Method: as §1, §3

AR+LNCaP cells [9] = experiment: DNA content at cell cycle stages (Propidium Iodide flow cytometry); assay type: cell-based, human; details: IC50 concentration, 1 nM DHT
Method: The amount of DNA contents of AR^+LNCaP cells stimulated with 1 nM DHT and treated with representative test compounds 3i and 3k at the different stages of the cell cycle were quantitatively evaluated as described previously. […] The Ab139418–Propidium Iodide Flow Cytometry Kit for Cell Cycle Analysis (ab139418, Abcam, Cambridge, UK) was employed for this assay following the procedures provided by the supplier.
Firstly, the ab139418-Propidium Iodide Flow Cytometry Kit for Cell Cycle Analysis (Bio vision, Boston, MA, USA) was used to quantify DNA contents at each cell cycle stage as an indicator of the cell cycle growth arrest.

melting point	SMILES	Early Apoptosis (%) (AR+LNCaP cells [1])	Late Apoptosis (%) (AR+LNCaP cells [1])	Necrotic Cells (%) (AR+LNCaP cells [1])	Total Apoptosis (%) (AR+LNCaP cells [1])	IC50 [2]	Selectivity AR-/AR+ [2]	CC50 [3]	IC50 [4]	active Caspase 3 fold change compared to untreated cells [5]	induction of active caspase 3 as a percentage of the reference drug Enzalutamide [5]	Caspase 3 fld [5]	Caspase 3 [5]	Caspase 3 Conc. (Average) [5]	IC50 [6]	Selective Index Wi38/Lncap [6]	IC50 [7]	IC50 [8]	Selective Index Wi38/PC-3 [8]	DNA Content (%) G0–G1 (AR+LNCaP cells [9])	also measured
210 to 212 °C	O=C1NC(=S)NC1=Cc1cn(-c2ccc(F)cc2)nc1-c1ccc(C(F)(F)F)cc1 [Compound 3k, 5-((1-(4-Fluorophenyl)-3-(4-(trifluoromethyl)phenyl)-1H-pyrazol-4-yl)methylene)-2-thioxoimidazolidin-4-one]	12.11%	16.89%	6.02%	35.02%	5.22 ± 0.12 µM	2.7	19.81 ± 0.07 µM	13.9 ± 0.18 µM	5.4 fold	81.2%	5.304	407.9 pg/mL	407.9	10.3 ± 0.14 µM	3.2	32.81 ± 0.08 µM	22.5 ± 0.29 µM	1.5	65.21%	DNA Content (%) G2/M (AR+LNCaP cells [9]): 19.18%; DNA Content (%) S (AR+LNCaP cells [9]): 15.61%
167 to 169 °C	Cc1ccc(-c2nn(-c3ccc(F)cc3)cc2C=C2NC(=S)NC2=O)cc1 [Compound 3m, 5-((1-(4-Fluorophenyl)-3-(p-tolyl)-1H-pyrazol-4-yl)methylene)-2-thioxoimidazolidin-4-one]	–	–	–	–	10.5 ± 0.11 µM	1.3	23.33 ± 0.19 µM	13.1 ± 0.14 µM	3.2 fold	48.6%	3.176	244.3 pg/mL	244.3	12.97 ± 0.06 µM	2.4	30.54 ± 0.08 µM	22.5 ± 0.46 µM	1.3	–	–
205 to 207 °C	O=C1NC(=S)NC1=Cc1cn(-c2ccc(C(F)(F)F)cc2)nc1-c1ccc(F)cc1 [Compound 3o, 5-((3-(4-Fluorophenyl)-1-(4-(trifluoromethyl)phenyl)-1H-pyrazol-4-yl)methylene)-2-thioxoimidazolidin-4-one]	–	–	–	–	11.75 ± 0.07 µM	1.4	22.35 ± 0.13 µM	16.4 ± 0.17 µM	3.5 fold	53.4%	3.490	268.4 pg/mL	268.4	12.66 ± 0.11 µM	2.0	25.08 ± 0.08 µM	21.08 ± 0.1 µM	1.2	–	–

Second part, the molecule before the results:

SMILES	melting point	Early Apoptosis (%) (AR+LNCaP cells [1])	Late Apoptosis (%) (AR+LNCaP cells [1])	Necrotic Cells (%) (AR+LNCaP cells [1])	Total Apoptosis (%) (AR+LNCaP cells [1])	IC50 [2]	Selectivity AR-/AR+ [2]	CC50 [3]	IC50 [4]	active Caspase 3 fold change compared to untreated cells [5]	induction of active caspase 3 as a percentage of the reference drug Enzalutamide [5]	Caspase 3 fld [5]	Caspase 3 [5]	Caspase 3 Conc. (Average) [5]	IC50 [6]	Selective Index Wi38/Lncap [6]	IC50 [7]	IC50 [8]	Selective Index Wi38/PC-3 [8]	DNA Content (%) G0–G1 (AR+LNCaP cells [9])	also measured
O=C1NC(=S)NC1=Cc1cn(-c2ccc(F)cc2)nc1-c1ccc(Cl)cc1 [Compound 3i, 5-((3-(4-Chlorophenyl)-1-(4-fluorophenyl)-1H-pyrazol-4-yl)methylene)-2-thioxoimidazolidin-4-one]	168 to 170 °C	11.47%	7.55%	2.77%	21.79%	6.08 ± 0.04 µM	2.6	21.93 ± 0.14 µM	15.52 ± 0.12 µM	4.7 fold	71.4%	4.667	358.9 pg/mL	358.9	12.07 ± 0.09 µM	2.5	29.93 ± 0.12 µM	19.5 ± 0.21 µM	1.5	58.33%	DNA Content (%) G2/M (AR+LNCaP cells [9]): 22.48%; DNA Content (%) S (AR+LNCaP cells [9]): 19.19%
O=C1NC(=S)NC1=Cc1cn(-c2ccc(C(F)(F)F)cc2)nc1-c1ccc(C(F)(F)F)cc1 [Compound 3p, 5-((1,3-Bis(4-(trifluoromethyl)phenyl)-1H-pyrazol-4-yl)methylene)-2-thioxoimidazolidin-4-one]	223 to 225 °C	–	–	–	–	5.91 ± 0.13 µM	2.7	20.18 ± 0.14 µM	15.2 ± 0.25 µM	4.4 fold	66.6%	4.351	334.6 pg/mL	334.6	12.11 ± 0.08 µM	2.1	25.35 ± 0.12 µM	23.2 ± 0.12 µM	1.0	–	–
